What all share (type): functional, cell-based
Experiment [1] in a line: Cytotoxicity against buthionine sulfoximine-pretreated mouse EN19 cells after 3 days by MTT assay.
Experiment [2] in a line: Cytotoxicity against buthionine sulfoximine-pretreated human HeLaS3 cells after 2 hrs by MTT assay. As to conditions: HeLa S3. Background: Tetrazolium assays rely on reduction of a dye to a coloured formazan, in cell work by metabolically active cells.
Experiment [3] is described as follows: Cytotoxicity against human HeLaS3 cells after 2 hrs by MTT assay. As to conditions: HeLa S3, 2 h.
Experiment [4] in a line: Cytotoxicity against human HeLaS3 cells after 4 days by MTT assay. Particulars: HeLa S3, 96 h.
A short description of experiment [5]: Cytotoxicity against mouse EN19 cells after 2 hrs by MTT assay. Particulars: EN19, 2 h.
Experiment [6] is described as follows: Cytotoxicity against mouse EN19 cells after 1 week by clonogenic assay. As to conditions: EN19, 168 h.
Experiment [7] is described as follows: Cytotoxicity against human HeLaS3 cells after 2 weeks by clonogenic assay. As to conditions: HeLa S3, 336 h.
Experiment [8] in a line: Cytotoxicity against mouse EN19 cells after 3 days by MTT assay. Particulars: EN19, 72 h.
Experiment [9] is described as follows: Cytotoxicity against buthionine sulfoximine-pretreated human HeLaS3 cells after 4 days by MTT assay. As to conditions: HeLa S3.
Experiment [10] is described as follows: Cytotoxicity against buthionine sulfoximine-pretreated mouse EN19 cells after 2 hrs by MTT assay.

Usually IC50 stands for the point on the concentration scale where inhibition reaches its midpoint. As for `COC1=C(Br)[C@H](O)[C@](O)(CC#N)C=C1Br`, the IC50 in experiment [1] amounted to 0.7 µM; in experiment [2] it was 5.4 µM; in experiment [3], 18.8 µM; in experiment [4], 5.6 µM; in [5], 8.2 µM; in experiment [6], 37 µM. Besides, the IC50 was 27.5 µM in experiment [7], 6.2 µM in experiment [8], 2.8 µM in [9] and 1.1 µM in experiment [10].

As to `NC(=O)CC1(O)C=C(Br)C(=O)C(Br)=C1` [VERONGIAQUINOL], the half-maximal inhibitory concentration (IC50) in experiment [1] is 5.4 µM; in experiment [2], 15.7 µM; in experiment [3] it was 31.9 µM; in experiment [4], 15.6 µM; in experiment [5], 46.1 µM; in [6], 74.3 µM. Besides, the IC50 in experiment [7] is 58 µM; in experiment [8], 26.1 µM; in experiment [9] it was 10.4 µM; in experiment [10], 3.9 µM.
